# Patent US12144851B2, “Vaccinal strategy” (INSERM (INSTITUT NATIONAL DE LA SANTÉ ET DE LA RECHERCHE …, priority 2018, dated 2024)
# Tested on: MELOE-136-44-specific CD8 T cells within PBMC
# Assay: In vitro PBMC stimulation with SLP, tetramer/CD8 staining of microcultures (MELOE-1)
# Type: cell-based, human
# Description: At day 0, PBMCs were plated in 96 wells at 2×10^5 cells/wells in RMPI 1640 medium containing 8% human serum, 50 IU/mL II-2 (Proleukin, Novartis) and stimulated with 5-10 μM of various SLP tested. Medium was supplemented following the acDC protocol (Martinuzzi et al., 2011) by addition of 1000 U/mL of GM-CSF (CellGenix) and 500 UI/ml of II-4 (CellGenix). After 24 hours TNF-a (1000 IU/mL), IL-1β (10 ng/mL) and prostaglandin E2 (1 μM) (R&D Systems, Minneapolis, USA) were added as DC maturation agents. After 21 days, the percentage of microcultures containing specific CD8+ T cells was evaluated by surface staining with anti-CD8 mAb and tetramer staining (HLA A*0201-MELOE-136-44 (SEQ ID NO:31) or MelanAA27L26-35. SEQ ID NO:64) (recombinant protein facility, P2 R, Nantes). Comparison of a number of positive microcultures after stimulation with aSLP in each subject was evaluated by Fisher's exact test and as a group using paired t-test (α=0.5%).
# We next tested the ability of SLP containing MELOE-113-27 (SEQ ID NO:21) and MELOE-136-44 (SEQ ID NO:31) with linkers GGGG (SEQ ID NO:160), LLSV (SEQ ID NO:4), or LLSVGG (SEQ ID NO:9) to reactivate and expand CD8 specific T cells within PBMC from HLA-A*0201 healthy donors in vitro. For this purpose, PBMC were treated for 24 h with GMCSF and IL-4 to accelerate the differentiation of monocytes into DC together with SLP at 5 μM and then TNF-a, IL-1b and PGE2 were added as maturation agents as previously described (see M&M). After 21 days, the percentage of CD8 specific T cells in each microculture was assessed by tetramer staining. […] The summary of all the experiments performed is presented on table 2. […] We next assessed our optimal linker LLSVGG using PBMC from seven healthy donors and two melanoma patients. Within this group, one healthy donor and one patient were excluded from the analysis for lack of any T cell response against MELOE-1. […] To further confirm this observation, we tested the cross presentation of the SLP containing Melan-A A271. (SEQ ID NO:64) epitope instead of MELOE-136-44 (SEQ ID NO:31) with linkers GGGG (SEQ ID NO:160) or LLSVGG (SEQ ID NO:9).
sequence,measurement,setting,value
TSREQFLPSEGAACPPWLLSVGGTLNDECWPASL (Synthetic SLP) [SEQ ID NO: 87],specific responses reactivated compared with aSLP containing the linker GGGG,"PBMC from six healthy donors and one melanoma patient, p=0.004, paired t-test, FIG. 6C",significantly more specific responses
same,"CD8 responses, positive microcultures, HD5","healthy donor HD5, 96 microcultures, SLP 5 μM, 21 days",16/96
